Experiments:
HPK1 = HPK1 (Homo sapiens, UniProt Q92918); assay: HPK1 kinase activity inhibition test (ADP-Glo, luminescence); assay type: biochemical; conditions: 2 μM ATP, 5 nM HPK1, read-out: IC50, inhibitory effects on HPK1 kinase activity
Experimental: The kinase activity of HPK1 is manifested as activity of autophosphorylation and phosphorylation of downstream substrates. In the process of autophosphorylation, additional substrates are not required, and ATP is consumed to generate ADP. The amount of the product is measured by ADP-Glo reagent and luminescence method to reflect kinase activity.
(§1) Tested compounds: compounds prepared in the Examples of this invention.
Preparation of compound stock solution: dissolve the test compound in 100% DMSO to make a 10 mM stock solution;
Preparation of 4×Kinase Reaction Buffer:
Preparation of 2×HPK1 Kinase Solution:
Preparation of 4×ATP Mixture:
Dilute the stock solution of the test compound by 5 times with 100% DMSO, make a 4-fold equal dilution in a 96-well dilution plate, add 1 μL of the compound to 49 μL of kinase reaction buffer, and shake on a microplate shaker for 20 minutes. Transfer 2 μL of 2×HPK1 kinase solution to 384 reaction plate, add 1 μL of the test compound to the 384 reaction plate (Greiner, Cat #784075), centrifuge for 1 minute (1000 rpm/min), incubate at 25° C. for 10 minutes. Transfer 1 μL of the 4×ATP mixture to a 384 reaction plate, centrifuge for 1 minute (1000 rpm/min), and incubate at 25° C. for 60 minutes. In the reaction system, the final concentration of DMSO is 0.5%. Transfer 4 μL of ADP-Glo to a 384 reaction plate, centrifuge for 1 minute (1000 rpm/min), and incubate at 25° C. for 40 minutes. Transfer 8 μL detection solution to a 384 reaction plate, centrifuge for 1 minute (1000 rpm/min), and incubate at 25° C. for 40 minutes. The […] is read using a Biotek multi-function plate reader, and the IC50 (half inhibitory concentration) of the compound is obtained using a four-coefficient nonlinear fitting formula.

KDR = KDR (Homo sapiens, UniProt P35968); assay: KDR kinase activity inhibition test (HTRF); assay type: biochemical; conditions: read-out: IC50, inhibitory effects on KDR kinase activity
Experimental: as §1
(§2) Prepare compound stock solution: dissolve the test compound in 100% DMSO to make a 10 mM stock solution. Dilute the stock solution of the test compound by 5 times with 100% DMSO, make a 4-fold equal dilution in a 96-well dilution plate, add 1 μL of the compound to 39 μL of kinase reaction buffer (1×kinase buffer, 5 mM MgCl2, 1 mM DTT), and shake on a microplate shaker for 20 minutes. 4×Positive control (4 μL of positive compound solution of the starting concentration, add 196 μL of kinase buffer) and 4×negative control (4 μL of 100% DMSO, add 196 μL of kinase buffer).
(§3) (1) Use 1×kinase reaction buffer to prepare 2.5×KDR kinase solution (250 μM), transfer 2 μL of the kinase solution to the 384 reaction plate, and add 1 μL of the test compound solution of gradient concentration to the 384 reaction plate (Greiner, Cat #784075), centrifuge for 1 minute (1000 rpm), and incubate at 25° C. for 10 minutes.
(§4) (2) Use 1×kinase reaction buffer to prepare 2.5×TK-substrate-biotin (2.5 μM) and 2.5×ATP (2.5 μM), mix well, and add 2 μL of the TK-substrate-biotin/ATP solution to the 384 reaction plate, centrifuge for 30 seconds (1000 rpm), and incubate at 25° C. for 40 minutes.
(§5) (3) Use HTRF detection buffer to prepare 2×Sa-XL 665 (125 nM) and 1×TK-antibody-Cryptate. Add 5 μL of a mixture of Sa-XL 665 and TK-antibody-Cryptate solutions to each well, centrifuge for 30 seconds (1000 rpm), and react at room temperature for 1 hour.
(§6) (4) The fluorescence signal is read using a Biotek multi-function plate reader, and the IC50 (half inhibitory concentration) of the compound is obtained using a four-coefficient nonlinear fitting formula.

Human Jurkat-E6-1 cells = assay: Detection of IL-2 production by Jurkat cells using ELISA; assay type: cell-based; conditions: anti-CD3/anti-CD28 stimulation 24 hours, read-out: Percentage of the amount of IL-2 secreted by compound treated vs DMSO-treated cells; for activity at 1 µM: tested compound 1.0 μM; for activity at 0.33 µM: tested compound 0.33 μM
Experimental: as §1
Human Jurkat-E6-1 cells were incubated with various concentrations of tested compounds for 30 minutes in a humidified incubator at 37° C. and 5% CO2. Cells were transferred to cell culture plates pre-coated with anti-human CD3 antibody, then soluble anti-human CD28 antibody was added, and cells were stimulated for 24 hours at 37° C. and 5% CO2 in a humidified incubator. The cell culture medium was collected after centrifugation, and was then transferred to a 96-well transparent microtiter plate (Thermo) pre-coated with anti-human IL-2 antibody, incubated at room temperature for 2 hours with gently shaking, washed with washing buffer for 4 times, and then followed the ELISA MAX Deluxe Set Human IL-2 (BioLegend) kit procedures, used a microplate reader (Molecular Device, i3X) to read the GD value at 450 nm. The best standard curve was selected by the microplate reader application software, and the corresponding concentration was calculated according to the GD value of the standard. Results are expressed as a percentage (%) of the amount of IL-2 secreted by compound-treated vs DMSO-treated cells.

FLT3 = molecular target: T1, FLT3 (Homo sapiens, UniProt P36888); assay: FLT3 kinase activity inhibition test (HTRF); assay type: biochemical; conditions: read-out: IC50, inhibitory effects on FLT3 kinase activity
T1 sequence (P36888 27-993): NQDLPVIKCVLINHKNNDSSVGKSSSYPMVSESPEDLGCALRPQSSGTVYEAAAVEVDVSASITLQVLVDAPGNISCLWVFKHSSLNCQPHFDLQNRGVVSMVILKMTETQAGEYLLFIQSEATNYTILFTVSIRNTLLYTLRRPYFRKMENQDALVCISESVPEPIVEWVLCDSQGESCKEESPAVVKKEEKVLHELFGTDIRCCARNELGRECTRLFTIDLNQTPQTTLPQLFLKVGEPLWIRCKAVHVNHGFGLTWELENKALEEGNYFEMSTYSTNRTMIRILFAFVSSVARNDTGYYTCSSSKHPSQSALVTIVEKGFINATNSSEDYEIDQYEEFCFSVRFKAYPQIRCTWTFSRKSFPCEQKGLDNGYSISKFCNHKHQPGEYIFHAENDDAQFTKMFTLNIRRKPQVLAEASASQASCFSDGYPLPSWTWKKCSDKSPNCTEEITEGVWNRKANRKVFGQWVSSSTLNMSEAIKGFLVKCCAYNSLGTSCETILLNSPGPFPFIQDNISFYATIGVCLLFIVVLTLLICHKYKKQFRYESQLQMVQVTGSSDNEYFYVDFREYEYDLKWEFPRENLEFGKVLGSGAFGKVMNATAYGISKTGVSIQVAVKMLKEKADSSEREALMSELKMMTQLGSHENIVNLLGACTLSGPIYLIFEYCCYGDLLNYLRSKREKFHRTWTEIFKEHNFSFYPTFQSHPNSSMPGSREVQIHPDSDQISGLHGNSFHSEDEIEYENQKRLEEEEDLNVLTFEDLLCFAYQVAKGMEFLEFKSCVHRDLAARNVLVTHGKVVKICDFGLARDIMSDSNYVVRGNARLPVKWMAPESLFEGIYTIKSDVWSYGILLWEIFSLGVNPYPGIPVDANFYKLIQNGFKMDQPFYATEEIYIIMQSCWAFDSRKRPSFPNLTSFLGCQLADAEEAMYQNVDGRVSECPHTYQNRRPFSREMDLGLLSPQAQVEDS
Experimental: as §1, §2
as §3, with “2.5×FLT3” for “2.5×KDR”, “(160” for “(250”
as §4, §5, §6

Chain of HPK1 (Q92918 whole entry): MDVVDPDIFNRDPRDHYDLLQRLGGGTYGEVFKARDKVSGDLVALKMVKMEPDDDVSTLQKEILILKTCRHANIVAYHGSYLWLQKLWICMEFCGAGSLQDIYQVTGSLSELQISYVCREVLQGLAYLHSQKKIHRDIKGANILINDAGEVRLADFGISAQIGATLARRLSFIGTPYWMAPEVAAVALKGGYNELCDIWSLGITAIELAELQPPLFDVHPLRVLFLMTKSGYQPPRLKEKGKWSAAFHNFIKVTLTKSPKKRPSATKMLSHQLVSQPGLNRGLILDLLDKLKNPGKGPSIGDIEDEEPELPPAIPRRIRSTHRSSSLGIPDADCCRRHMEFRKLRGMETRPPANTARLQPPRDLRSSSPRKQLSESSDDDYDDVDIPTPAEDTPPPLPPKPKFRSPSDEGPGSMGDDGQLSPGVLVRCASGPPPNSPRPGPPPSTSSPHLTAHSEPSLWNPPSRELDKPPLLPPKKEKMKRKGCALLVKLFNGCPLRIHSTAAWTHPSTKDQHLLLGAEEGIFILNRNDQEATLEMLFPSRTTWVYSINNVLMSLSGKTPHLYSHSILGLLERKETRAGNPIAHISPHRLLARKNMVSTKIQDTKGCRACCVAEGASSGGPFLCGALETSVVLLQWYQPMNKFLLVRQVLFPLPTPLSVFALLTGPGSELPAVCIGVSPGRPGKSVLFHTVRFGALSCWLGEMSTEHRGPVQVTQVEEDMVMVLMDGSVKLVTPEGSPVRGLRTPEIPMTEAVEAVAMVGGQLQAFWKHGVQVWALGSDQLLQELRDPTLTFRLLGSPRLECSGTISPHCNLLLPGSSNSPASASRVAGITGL
Chain of KDR (P35968 20-1356): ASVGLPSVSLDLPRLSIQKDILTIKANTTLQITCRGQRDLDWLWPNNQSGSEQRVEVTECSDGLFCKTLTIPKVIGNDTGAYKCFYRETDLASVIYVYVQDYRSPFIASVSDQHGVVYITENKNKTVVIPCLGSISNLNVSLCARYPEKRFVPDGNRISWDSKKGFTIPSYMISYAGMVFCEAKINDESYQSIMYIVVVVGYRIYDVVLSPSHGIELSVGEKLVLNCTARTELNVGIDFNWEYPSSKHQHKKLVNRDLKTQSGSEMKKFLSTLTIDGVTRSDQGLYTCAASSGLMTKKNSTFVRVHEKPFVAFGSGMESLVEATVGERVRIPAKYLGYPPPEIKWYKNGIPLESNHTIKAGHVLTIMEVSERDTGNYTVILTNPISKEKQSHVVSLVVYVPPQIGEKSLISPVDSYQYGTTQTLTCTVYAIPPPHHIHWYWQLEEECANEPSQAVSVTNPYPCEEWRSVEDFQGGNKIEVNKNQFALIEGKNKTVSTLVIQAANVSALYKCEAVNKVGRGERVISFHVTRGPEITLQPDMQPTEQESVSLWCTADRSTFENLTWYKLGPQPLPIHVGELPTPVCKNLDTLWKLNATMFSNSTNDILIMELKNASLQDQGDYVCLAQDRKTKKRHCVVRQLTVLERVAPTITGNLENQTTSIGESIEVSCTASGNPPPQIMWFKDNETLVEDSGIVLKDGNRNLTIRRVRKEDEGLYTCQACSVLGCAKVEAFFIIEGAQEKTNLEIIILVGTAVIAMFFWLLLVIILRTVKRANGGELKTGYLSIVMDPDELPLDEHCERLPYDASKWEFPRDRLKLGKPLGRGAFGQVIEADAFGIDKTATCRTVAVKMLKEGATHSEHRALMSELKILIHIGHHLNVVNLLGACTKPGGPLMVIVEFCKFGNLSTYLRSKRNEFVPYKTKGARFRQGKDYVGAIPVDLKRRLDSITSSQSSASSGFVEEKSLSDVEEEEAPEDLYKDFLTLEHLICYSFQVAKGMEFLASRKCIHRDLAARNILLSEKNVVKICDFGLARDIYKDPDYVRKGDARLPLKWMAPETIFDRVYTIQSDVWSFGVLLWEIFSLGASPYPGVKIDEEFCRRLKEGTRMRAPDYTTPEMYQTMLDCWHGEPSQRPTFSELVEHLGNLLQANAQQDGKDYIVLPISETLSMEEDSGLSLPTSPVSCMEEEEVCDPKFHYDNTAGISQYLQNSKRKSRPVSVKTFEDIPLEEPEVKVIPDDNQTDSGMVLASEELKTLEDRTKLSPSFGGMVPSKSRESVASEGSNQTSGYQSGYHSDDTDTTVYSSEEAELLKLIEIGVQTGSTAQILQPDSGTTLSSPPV

Fc1cccc2c1-c1cc3c(n[nH]c3cn1)-c1ccc(N3CCNCC3)c(c1)OCCCOC2 [Compound 10, 17-fluoro-5-(piperazin-1-yl)-7,11-dioxa-20,23,24-triazapentacyclo[17.5.2.1^2,6.0^13,18.0^22,25]heptacosa-1(24),2(27),3,5,13,15,17,19,21,25-decaene]
IC50 (HPK1): ≤ 5 nM | IC50 (KDR): 5 to 50 nM | activity at 1 µM (Human Jurkat-E6-1 cells): 298% | IC50 (FLT3): ≤ 5 nM

OCCN1CCN(c2ccc3cc2OCCCOCc2cccc(F)c2-c2cc4c-3n[nH]c4cn2)CC1 [Compound 12, 17-fluoro-5-(4-(2-hydroxyethyl)piperazin-1-yl)-7,11-dioxa-20,23,24-triazapentacyclo[17.5.2.1^2,6.0^13,18.0^22,25]heptacosa-1(24),2(27),3,5,13,15,17,19,21,25-decaene]
IC50 (HPK1): ≤ 5 nM | IC50 (KDR): 5 to 50 nM | IC50 (FLT3): ≤ 5 nM

Fc1cccc2c1-c1cc3c(n[nH]c3cn1)-c1ccc(N3CCN4CCOC[C@H]4C3)c(c1)OCCCO2 [Compound 102, 5-[(9aR)-octahydropyrazino[2,1-c][1,4]oxazin-8-yl]-16-fluoro-7,11-dioxa-19,22,23-triazapentacyclo[16.5.2.1^2,6.0^12,17.0^21,24]hexacosa-1(23),2,4,6(26),12(17),13,15,18,20,24-decaene]
IC50 (HPK1): ≤ 5 nM | IC50 (KDR): ≤ 5 nM | activity at 1 µM (Human Jurkat-E6-1 cells): 702% | IC50 (FLT3): ≤ 5 nM

Fc1cccc2c1-c1cc3c(n[nH]c3cn1)-c1ccc(N3CCN4CCOC[C@H]4C3)c(c1)OCCCOC2 [Compound 103, 5-[(9aR)-octahydropyrazino[2,1-c][1,4]oxazin-8-yl]-17-fluoro-7,11-dioxa-20,23,24-triazapentacyclo[17.5.2.1^2,6.0^13,18.0^22,25]heptacosa-1(24),2,4,6(27),13(18),14,16,19,21,25-decaene]
IC50 (HPK1): ≤ 5 nM | IC50 (KDR): ≤ 5 nM | activity at 0.33 µM (Human Jurkat-E6-1 cells): 580% | IC50 (FLT3): ≤ 5 nM

CN1C[C@@H]2CN(c3ccc4cc3OCCCOCc3cccc(F)c3-c3cc5c-4n[nH]c5cn3)CCN2CC1=O [Compound 128, (9aS)-8-{17-fluoro-7,11-dioxa-20,23,24-triazapentacyclo[17.5.2.1^2,6.0^13,18.0^22,25]heptacosa-1(24),2,4,6(27),13(18),14,16,19,21,25-decaen-5-yl}-2-methyl-octahydro-1H-[1,4]diazino[1,2-a]pyrazin-3-one]
IC50 (HPK1): ≤ 5 nM | activity at 0.33 µM (Human Jurkat-E6-1 cells): 452%

OCCN1C2CCC1CN(c1ccc3cc1OCCCOc1cccc(F)c1-c1cc4c-3n[nH]c4cn1)C2 [Compound 145, 2-(3-{16-fluoro-7,11-dioxa-19,22,23-triazapentacyclo[16.5.2.1^2,6.0^12,17.0^21,24]hexacosa-1(23),2,4,6(26),12(17),13,15,18,20,24-decaen-5-yl}-3,8-diazabicyclo[3.2.1]octan-8-yl)ethan-1-ol]
IC50 (HPK1): ≤ 5 nM | activity at 1 µM (Human Jurkat-E6-1 cells): 512%

Fc1cccc2c1-c1cc3c(n[nH]c3cn1)-c1ccc(N3CC4CC(C3)N4C3COC3)c(c1)OCCCO2 [Compound 146, 16-fluoro-5-[6-(oxetan-3-yl)-3,6-diazabicyclo[3.1.1]heptan-3-yl]-7,11-dioxa-19,22,23-triazapentacyclo[16.5.2.1^2,6.0^12,17.0^21,24]hexacosa-1(23),2,4,6(26),12(17),13,15,18,20,24-decaene]
IC50 (HPK1): ≤ 5 nM | activity at 1 µM (Human Jurkat-E6-1 cells): 476%

Fc1cccc2c1-c1cc3c(n[nH]c3cn1)-c1ccc(N3CC4CC(C3)N4CC3CCOCC3)c(c1)OCCCO2 [Compound 147, 16-fluoro-5-{6-[(oxan-4-yl)methyl]-3,6-diazabicyclo[3.1.1]heptan-3-yl}-7,11-dioxa-19,22,23-triazapentacyclo[16.5.2.1^2,6.0^12,17.0^21,24]hexacosa-1(23),2,4,6(26),12(17),13,15,18,20,24-decaene]
IC50 (HPK1): ≤ 5 nM | activity at 0.33 µM (Human Jurkat-E6-1 cells): 429%

CN1C[C@H]2C[C@@H]1CN2c1ccc2cc1OCCCOCc1cccc(F)c1-c1cc3c-2n[nH]c3cn1 [Compound 152, 17-fluoro-5-[(1R,4R)-5-methyl-2,5-diazabicyclo[2.2.1]heptan-2-yl]-7,11-dioxa-20,23,24-triazapentacyclo[17.5.2.1^2,6.0^13,18.0^22,25]heptacosa-1(24),2,4,6(27),13(18),14,16,19,21,25-decaene]
IC50 (HPK1): ≤ 5 nM | activity at 0.33 µM (Human Jurkat-E6-1 cells): 432%

Fc1cccc2c1-c1cc3c(n[nH]c3cn1)-c1ccc(N3C[C@@H]4C[C@H]3CN4C3COC3)c(c1)OCCCOC2 [Compound 153, 17-fluoro-5-[(1S,4S)-5-(oxetan-3-yl)-2,5-diazabicyclo[2.2.1]heptan-2-yl]-7,11-dioxa-20,23,24-triazapentacyclo[17.5.2.1^2,6.0^13,18.0^22,25]heptacosa-1(24),2,4,6(27),13(18),14,16,19,21,25-decaene]
IC50 (HPK1): ≤ 5 nM | activity at 0.33 µM (Human Jurkat-E6-1 cells): 369%
